≈ marks a conversion by molar mass, not a printed value. Structures can show the parent of a compound that is named as a salt.
Key:
Type in all cases: cell-based
Fusarium oxysporum = test: MIC by micro-liquid dilution method (Alamar Blue assay), Fusarium oxysporum; set-up: unit not given here; settings: 2 clinical strains; 35° C., 72 hours; MIC = minimum concentration with IC not less than 80%
Description: (§1) The MICs of each type of antifungal agent against Fusarium oxysporum and Fusarium solani were determined. That is, each fungus was cultured at 35° C. for 72 hours using, as a medium, “RPMI 1640/MOPS liquid medium supplemented with 10% Alamar Blue (registered trademark) (pH 7.0)” (see Shinobu Ishigaki et al., The Journal of the Japanese Association for Infectious Diseases, vol. 74(3) (2000) pp. 221-230) according to the micro-liquid dilution method (Alamar Blue assay), which is in accordance with the CLSI standardization and the Japanese Society for Medical Mycology method. Thereafter, O.D. was measured for investigating color change of the oxidation-reduction indicator Alamar Blue, to determine the minimum inhibitory concentration (MIC). That is, the growth inhibition rate (IC) was determined based on the O.D. value, and the minimum concentration of the agent at which an IC of not less than 80% was achieved was determined as MIC. Two strains of Fusarium oxysporum (clinically separated strains; Teikyo University Institute of Medical Mycology), and 10 strains of Fusarium solani (clinically separated strains; Institute of Dermatology (Thailand) and Teikyo University Institute of Medical Mycology) were used.

Fusarium solani = test: MIC by micro-liquid dilution method (Alamar Blue assay), Fusarium solani; set-up: unit not given here; settings: 10 clinical strains; 35° C., 72 hours; MIC = minimum concentration with IC not less than 80%
Description: as §1

Trichomonas vaginalis = test: Growth inhibition of Trichomonas vaginalis in Trichomonas Medium F (neutral red colour, microscopy); settings: for MIC: clinically isolated Trichomonas vaginalis, read-out: minimum inhibitory concentration (MIC); for MIC / Color / Result of observation under the microscope: 72 hours; for Color: 37° C.; for Result of observation under the microscope: inverted microscope
Description: Among the compounds represented by General Formula (1), luliconazole was selected for investigation of the effect on Trichomonas vaginalis. That is, 5×10^6 cells of clinically isolated Trichomonas vaginalis were seeded in Trichomonas Medium F, manufactured by Fuji Pharma Industrial Co., Ltd., which contains neutral red as a marker (6.5 mL, contained in a tube). Preculture was performed for 72 hours (preculture). After confirming that the Trichomonas has grown to actively produce acid and to thereby cause changing of the color of neutral red to yellow, 100 μL of the obtained preculture liquid was added to Trichomonas Medium F to be used for main culture. To resulting mixture, 0.5 mL of each test liquid was further added. The number of Trichomonas cells in the preculture liquid at this time was 1.5×10^5 cells/mL. Three types of test liquids, that is, solutions of luliconazole in 10% methanol/saline solution at luliconazole concentrations of 200 μM (final concentration, 35.2 μM), 100 μM (final concentration, 17.6 μM) and 50 μM (final concentration, 8.8 μM), were provided. A control was prepared by adding 0.5 mL of a vehicle as a test liquid. As the vehicle, 10% methanol/saline solution (final concentration, 0 μM) was used. After the addition, each resulting mixture was stirred well, and culture was carried out at 37° C. for 72 hours. Thereafter, the color was judged, and the condition of Trichomonas cells was observed under an inverted microscope.
The same study as in Example 1 was carried out except that lanoconazole was used instead of luliconazole.

[1] = test system: Chlamydia trachomatis (D/UW3/Cx); test: Anti-intracellular parasite action: Chlamydia trachomatis cultured in HeLa 229 cells, fluorescent staining of inclusion bodies
Description: FIG. 1 is a diagram (photographs) illustrating the results of observation of chlamydial inclusion bodies after luliconazole treatment, which observation was carried out by fluorescent staining using a Chlamydia FA reagent “Seiken”.
Using Chlamydia trachomatis (D/UW3/Cx), the anti-intracellular parasite action was examined. That is, Chlamydia trachomatis was cultured using HeLa 229 cells as a host in the presence of a 2-fold dilution series of 8 to 64 μg/mL luliconazole. The culture was carried out using, as a medium, MEM supplemented with 1 μg/mL cyclohexamide and 8% heat-inactivated FBS, at 37° C. under 5% carbon dioxide for 72 hours. Thereafter, inclusion bodies were fluorescently stained in apple green using a Chlamydia FA reagent “Seiken” (manufactured by Denka Seiken Co., Ltd.), and observed under a fluorescence microscope.

[2] = final concentration 8.8 μM, neutral red marker
[3] = final concentration 17.6 μM, neutral red marker
[4] = final concentration 35.2 μM, neutral red marker (yellow = acid production by growing Trichomonas)

Row | Compound | MIC, F. oxysporum (2), lower line of each agent (range) (Fusarium oxysporum) | MIC, F. solani (10), lower line of each agent (range) (Fusarium solani) | other results
1 | N#C/C(=C1/SCC(c2ccccc2Cl)S1)n1ccnc1 (stereo not drawn) [lanoconazole, 4-(2-chlorophenyl)-1,3-dithiolan-2-ylidene-1-imidazolylacetonitrile] | 0.063-0.13 | 0.063-0.25 | MIC (Trichomonas vaginalis): ~17.6 µM (≈ 5.63 µg/mL); Color (Trichomonas vaginalis; [2]): Yellow; Color (Trichomonas vaginalis; [3]): Red; Color (Trichomonas vaginalis; [4]): Red; Result of observation under the microscope (Trichomonas vaginalis; final concentration 35.2 μM): No Trichomonas cell was found; growth of Trichomonas (Trichomonas vaginalis; same study as Example 1, no concentration stated): inhibit the growth of Trichomonas
2 | N#C/C(=C1/SC[C@@H](c2ccc(Cl)cc2Cl)S1)n1ccnc1 [luliconazole, (R)-(−)-(E)-[4-(2,4-dichlorophenyl)-1,3-dithiolan-2-ylidene]-1-imidazolylacetonitrile] | 0.016-0.031 | 0.016-0.063 | observation of chlamydial inclusion bodies ([1]; 8 μg/mL, FIG. 1 panel (A)): chlamydial inclusion bodies were found; observation of chlamydial inclusion bodies ([1]; 16 μg/mL, FIG. 1 panel (B)): chlamydial inclusion bodies were found; observation of chlamydial inclusion bodies ([1]; 32 μg/mL, FIG. 1 panel (C)): no inclusion body was found; MIC ([1]; Chlamydia trachomatis, HeLa 229 host cells, 72 hours, 2-fold dilution series 8 to 64 μg/mL, read-out: MIC against Chlamydia trachomatis): 32 µg/mL (≈ 90.3 µM); growth of Trichomonas (Trichomonas vaginalis; 8.8 μM): inhibited the growth of Trichomonas; MIC (Trichomonas vaginalis): ~8.8 µM (≈ 3.12 µg/mL); Color (Trichomonas vaginalis; [2]): Yellow; Color (Trichomonas vaginalis; [3]): Red; Result of observation under the microscope (Trichomonas vaginalis; final concentration 17.6 μM): No Trichomonas cell was found; Color (Trichomonas vaginalis; [4]): Red; Result of observation under the microscope (Trichomonas vaginalis; final concentration 35.2 μM): No Trichomonas cell was found
3 | C=C1CCN([C@H](C)[C@](O)(Cn2cncn2)c2ccc(F)cc2F)CC1 [EFCZ, Efinaconazole] | 0.25-1 |  | 
4 | C[C@@H](c1ncncc1F)[C@](O)(Cn1cncn1)c1ccc(F)cc1F [VCZ, Voriconazole] | >4 |  | 
5 | CC(=O)N1CCN(c2ccc(OCC3COC(Cn4ccnc4)(c4ccc(Cl)cc4Cl)O3)cc2)CC1 (stereo not drawn) [KCZ, Ketoconazole] | >4 |  | 
6 | Clc1ccc(COC(Cn2ccnc2)c2ccc(Cl)cc2Cl)c(Cl)c1 (stereo not drawn) [MCZ, Miconazole nitrate] | >4 |  | 
7 | C[C@@H]1[C@H](O)[C@@H](C)/C=C/C=C/C=C/C=C/C=C/C=C/C=C/[C@H](O[C@@H]2O[C@H](C)[C@@H](O)[C@H](N)[C@@H]2O)C[C@@H]2O[C@](O)(C[C@@H](O)C[C@@H](O)[C@H](O)CC[C@@H](O)C[C@@H](O)CC(=O)O[C@H]1C)C[C@H](O)[C@H]2C(=O)O [AMB, Amphotericin B] |  | 2-4 | 
8 | c1ccc(-c2ccc(C(c3ccccc3)n3ccnc3)cc2)cc1 (stereo not drawn) [BFZ, Bifonazole] | >4 | >4 | 
9 | OC(Cn1cncn1)(Cn1cncn1)c1ccc(F)cc1F [FCZ, Fluconazole] | >4 | >4 | 
10 | CCC(C)n1ncn(-c2ccc(N3CCN(c4ccc(OCC5COC(Cn6cncn6)(c6ccc(Cl)cc6Cl)O5)cc4)CC3)cc2)c1=O (stereo not drawn) [ITZ, Itraconazole] | >4 | >4 | 
11 | CCC(C)(C)c1ccc(CC(C)CN2C[C@@H](C)O[C@@H](C)C2)cc1 (stereo partly drawn) [AMO, Amorolfine hydrochloride] | >4 | >4 | 
12 | Clc1ccccc1C(c1ccccc1)(c1ccccc1)n1ccnc1 [CTZ, Clotrimazole] | >4 | >4 | 
